According to US9226905B2 (SAMSUNG ELECTRONICS CO., LTD., priority 2011, dated 2016):

Assays:
[1] = tested on: Caenorhabditis elegans; conditions: reported; cited from earlier work
[2] = tested on: mouse muscles (SOL and EDL); test: Measurement of tetanus isometric force; type: in vivo, C57BL/6J mice; conditions: SOL 150 Hz, 100V, 800 ms, EDL 100 Hz, 400 ms
From the text: In the muscle contraction stimulation system, SOL muscle formed the peak plateau under the conditions of 150 Hz, 100 V and 800 ms. […] In this Example, the mice used in Example 6 were used. The mice were rested for a sufficient time after twitch stimulation, and then tetanic stimulation was applied to the mice. As stimulation at the time of formation of a stable graph in which the peak forms the plateau, 150 Hz (100V, 800 ms stimulation time) was used for Soleus, and 100 Hz (100V, 400 ms stimulation time) was used for EDL. Each of these values was used as the peak Isometric force for each muscle, and the results are plotted in unit of mN and shown in FIG. 9.

[3] = tested on: mouse muscles (SOL and EDL); test: Measurement of twitch isometric force; type: in vivo, C57BL/6J mice; conditions: SOL and EDL separated from treated mice, 0.2 Hz (100V) twitch stimulation
Method: One end of the tendons was anchored to a tissue bath, which was filled with Ringer's solution and to which oxygen was smoothly supplied, and the other end was anchored to a FT03 isometric force transducer (Grass instruments, West Warwick, USA). The twitch and tetanus of the muscle were adjusted by the intensity of electric stimulation. The muscle was stabilized in Ringer's solution for 10 minutes, and then an experiment for muscle contraction function was carried out. To maximize the function of the muscle, the length of the muscle showing the highest response at 0.2 Hz (100V), twitch stimulation, was measured and assigned as Lo.

[4] = tested on: blood creatine kinase level; test: Measurement of blood creatine kinase (CK) level; conditions: administered for 3 months
[5] = tested on: grip strength of mice; test: Measurement of grip strength; type: in vivo, C57BL/6J mice; conditions: 2 mg/kg, 3 months
Method: To measure the grip strength of the mice, a grip strength meter (Bioseb) was used. The grip strength of the mice was measured by positioning the mice to grab the grid plate with the forelimbs, slowly pulling the tail in a horizontal direction, and determining the value at the time at which the forelimbs were detached from the grid.

[6] = mouse, in vivo, 2 mg/kg
[7] = tested on: soleus (SOL) and extensor digitorum longus (EDL) muscle weight; test: Muscle weight of SOL and EDL; type: in vivo, C57BL/6J mice; conditions: aged mice (23-month-old and 30-month-old), female and male, 2 mg/kg, 3 months
Method: In order to separate muscle from the mice, the mice were anesthetized by injection with sodium pentobarbital (100 mg/kg body weight). One soleus (SOL) and one extensor digitorum longus (EDL) were carefully separated from the hindlimb of each mouse, so that the muscle was not damaged, and the weight of each of the separated muscles was measured.

[8] = tested on: gastrocnemius (GA) and tibialis anterior (TA) muscle weight; test: Muscle weight of GA and TA; type: in vivo, C57BL/6J mice; conditions: aged mice (23-month-old and 30-month-old), female and male, 2 mg/kg, 3 months
Method: In order to separate muscle from the mice, the mice were anesthetized by injection with sodium pentobarbital (100 mg/kg bodyweight). One gastrocnemius (GA) and one tibialis anterior (TA) were carefully separated from the hindlimb of each mouse, so that the muscle was not damaged, and the weight of each of the separated muscles was measured.

[9] = tested on: bacterial growth; test: Bacterial growth inhibitory activity of autoclaved DDS; type: cell-based; conditions: DDS added to bacterial medium and autoclaved, compared with control
Method: Specifically, DDS was added to a bacterial medium and autoclaved, and then compared with a control.

[10] = Water intake of mice on administration of autoclaved DDS; conditions: male mice, at 4-day intervals for 3 months
[11] = female mice, vs negative control

SMILES	increase of life span of Caenorhabditis elegans [1]	muscle tetanic force (reduced with aging) [2]	muscle twitch force (reduced with aging) [3]	blood creatine kinase level ([4]; 18-month-old or older mice, 2 mg/kg)	blood creatine kinase level [4, 11]	grip strength ([5]; 18-month-old female mice)	grip strength ([5]; 23-month-old or older female mice)	grip strength ([5]; male mice)	water intake vs control group [6]	weight of EDL [7]	weight of SOL [7]	weight of GA [8]	weight of TA [8]	bacterial growth inhibitory activity [9]	water intake [10]
Nc1ccc(S(=O)(=O)c2ccc(N)cc2)cc1 [DDS, diaminodiphenylsulfone]	20-30%	effectively restored	effectively restored	effectively decreases	significantly reduced	not distinct	significantly restored	increased	did not significantly differ	restored	restored	restored	restored	maintained	
CC(C)(C)NCC(O)c1cc(Cl)c(N)c(Cl)c1 (stereo not shown) [Clenbuterol]					equal to or higher than that of the negative control										increased
